Consider 11 compounds from patent US20250066388A1, “1,3,4,7-TETRAHYDRO-2H-PYRROLO[3',2':5,6]PYRIDO[2,3-B][1,4]OXAZEPINE BCL-2 INHIBITORS” (AbbVie Inc., priority 2022, published 2025).

A value given as a limit tells only on which side of the number the result lay.

In one experiment the test system is RS4;11 cells. Nature of the experiment: Cell viability assay (CellTiter-Glo) in RS4;11 cells. As to conditions: 10% Human Serum. It counts as cell-based. As for the experimental part: (§1) The acute lymphoblastic leukemia (ALL) human cell line RS4;11 (ATCC, Manassas VA) was used as the primary human cell line to assess the cellular activity of compound of the present Examples in vitro and their efficacy in vivo. […] The acute lymphoblastic leukemia cell line Molt-4, which is derived from immature T-lymphoid cells (T-ALL), was used as a counter screen assay.
(§2) 3000 Cells (0.1×10^6/mL) were seeded in each well of 384-well plate and were treated for 24 hours in a humidified chamber with 5% CO2. Cell viability was determined by CellTiter-Glo as described by the manufacturer's instructions (Promega Corporation, Madison, WI, USA).

The subject of a further experiment is Molt-4 cells. Nature of the experiment: Cell viability counter screen (CellTiter-Glo) in Molt-4 cells. Type of experiment: cell-based. Conditions: 24 hours, 10% Human Serum. As for the experimental part: as §1, §2
The next experiment deals with Bcl-2 protein (Homo sapiens (Human), UniProt P10415). Briefly: TR-FRET binding assay, Bcl-2. As to conditions: F-Bak peptide probe, GST-Bcl-2. In general terms: In TR-FRET formats the signal depends on donor and acceptor labels being close together.
The target in another experiment is Bcl-xL protein (Homo sapiens (Human), UniProt Q07817). Nature of the experiment: TR-FRET binding assay, Bcl-xL. Conditions: F-Bak peptide probe.
Sequence of Bcl-xL protein (Q07817 other isoform, or with tags, fused parts or gaps): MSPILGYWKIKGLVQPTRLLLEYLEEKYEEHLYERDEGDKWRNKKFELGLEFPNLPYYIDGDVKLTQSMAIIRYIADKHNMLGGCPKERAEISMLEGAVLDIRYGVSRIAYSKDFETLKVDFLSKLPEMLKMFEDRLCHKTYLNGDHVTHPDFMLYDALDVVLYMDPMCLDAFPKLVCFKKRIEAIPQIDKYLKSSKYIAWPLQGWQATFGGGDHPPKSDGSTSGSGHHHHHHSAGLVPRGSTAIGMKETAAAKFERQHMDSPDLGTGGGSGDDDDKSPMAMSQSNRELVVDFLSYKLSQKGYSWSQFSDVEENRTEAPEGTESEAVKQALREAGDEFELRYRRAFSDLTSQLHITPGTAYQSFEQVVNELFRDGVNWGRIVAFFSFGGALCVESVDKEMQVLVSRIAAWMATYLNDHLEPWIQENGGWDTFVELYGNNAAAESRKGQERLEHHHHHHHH

Sequence of Bcl-2 protein (P10415 other isoform, or with tags, fused parts or gaps): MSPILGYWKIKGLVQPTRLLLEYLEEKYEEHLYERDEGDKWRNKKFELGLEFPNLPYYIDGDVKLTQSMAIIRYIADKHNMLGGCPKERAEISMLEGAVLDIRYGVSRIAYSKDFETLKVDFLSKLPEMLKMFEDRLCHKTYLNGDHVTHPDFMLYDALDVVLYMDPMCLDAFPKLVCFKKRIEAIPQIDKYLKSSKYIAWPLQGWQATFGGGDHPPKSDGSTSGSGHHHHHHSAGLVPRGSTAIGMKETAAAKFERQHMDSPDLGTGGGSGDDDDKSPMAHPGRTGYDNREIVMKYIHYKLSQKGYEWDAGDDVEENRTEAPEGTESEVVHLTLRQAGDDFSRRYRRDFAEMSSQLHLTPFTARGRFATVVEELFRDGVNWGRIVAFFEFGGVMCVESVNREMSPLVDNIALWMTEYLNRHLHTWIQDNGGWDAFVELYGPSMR

For the compound `CC1(C)CC(c2ccc(Cl)cc2)=C2CN3CCN(c4ccc(C(=O)NS(=O)(=O)c5ccc(NCC6CCOCC6)c([N+](=O)[O-])c5)c(N5CCCOc6nc7[nH]ccc7cc65)c4)C[C@H]3COCCCO[C@@H]2C1` [Example 1, 4-((4aS,10aR)-14-(4-chlorophenyl)-12,12-dimethyl-1,2,4a,5,8,9,10a,11,13,15-decahydro-7H,12H-benzo[f]pyrazino[2,1-c][1,8]dioxa[4]azacycloundecin-3(4H)-yl)-2-(3,4-dihydro-2H-pyrrolo[3′,2′:5,6]pyrido[2,3-b][1,4]oxazepin-1(7H)-yl)-N-((3-nitro-4-(((tetrahydro-2H-pyran-4-yl)methyl)amino)phenyl)sulfonyl)benzamide], the EC50 – broadly, the concentration needed to bring the measured effect to its halfway point – in the experiment with RS4;11 cells (24 hours) is 4.01 nM; with Molt-4 cells, more than 10000 nM. For the same compound, the Ki (in general, a measure of affinity in units of concentration, obtained from inhibition or displacement) was found to be 0.459 nM at Bcl-2 protein and 19.4 nM on Bcl-xL protein.
In the case of `CC1(C)CC(c2ccc(Cl)cc2)=C2CN3CCN(c4ccc(C(=O)NS(=O)(=O)c5ccc(NC[C@H]6CC[C@](C)(O)CO6)c([N+](=O)[O-])c5)c(N5CCCOc6nc7[nH]ccc7cc65)c4)C[C@H]3COCCCO[C@@H]2C1` [Example 2, 4-((4aS,10aR)-14-(4-chlorophenyl)-12,12-dimethyl-1,2,4a,5,8,9,10a,11,13,15-decahydro-7H,12H-benzo[f]pyrazino[2,1-c][1,8]dioxa[4]azacycloundecin-3(4H)-yl)-2-(3,4-dihydro-2H-pyrrolo[3′,2′:5,6]pyrido[2,3-b][1,4]oxazepin-1(7H)-yl)-N-((4-((((2R,5S)-5-hydroxy-5-methyltetrahydro-2H-pyran-2-yl)methyl)amino)-3-nitrophenyl)sulfonyl)benzamide], the EC50 with RS4;11 cells (24 hours) is 0.651 nM; with Molt-4 cells, 1220 nM. Besides, the Ki at Bcl-2 protein came to 0.0489 nM; at Bcl-xL protein it was 9.3 nM.
On the same counts, the results for `C[C@@H]1CO[C@@H](CNc2ccc(S(=O)(=O)NC(=O)c3ccc(N4CCN5CC6=C(c7ccc(Cl)cc7)CC(C)(C)C[C@H]6OCCCOC[C@@H]5C4)cc3N3CCCOc4nc5[nH]ccc5cc43)cc2[N+](=O)[O-])CO1` [Example 6, 4-((4aS,10aR)-14-(4-chlorophenyl)-12,12-dimethyl-1,2,4a,5,8,9,10a,11,13,15-decahydro-7H,12H-benzo[f]pyrazino[2,1-c][1,8]dioxa[4]azacycloundecin-3(4H)-yl)-2-(3,4-dihydro-2H-pyrrolo[3′,2′:5,6]pyrido[2,3-b][1,4]oxazepin-1(7H)-yl)-N-((4-((((2S,5R)-5-methyl-1,4-dioxan-2-yl)methyl)amino)-3-nitrophenyl)sulfonyl)benzamide] are 1.55 nM, 1910 nM, 0.438 nM and 5.62 nM.
As for `CC1(C)CC(c2ccc(Cl)cc2)=C2CN3CCN(c4ccc(C(=O)NS(=O)(=O)c5ccc(NC[C@H]6CC[C@H](O)CO6)c([N+](=O)[O-])c5)c(N5CCCOc6nc7[nH]ccc7cc65)c4)C[C@H]3COCCCO[C@@H]2C1` [Example 12, 4-((4aS,10aR)-14-(4-chlorophenyl)-12,12-dimethyl-1,2,4a,5,8,9,10a,11,13,15-decahydro-7H,12H-benzo[f]pyrazino[2,1-c][1,8]dioxa[4]azacycloundecin-3(4H)-yl)-2-(3,4-dihydro-2H-pyrrolo[3′,2′:5,6]pyrido[2,3-b][1,4]oxazepin-1(7H)-yl)-N-((4-((((2R,5S)-5-hydroxytetrahydro-2H-pyran-2-yl)methyl)amino)-3-nitrophenyl)sulfonyl)benzamide], the EC50 worked out at 0.966 nM in the experiment on RS4;11 cells (Homo sapiens, RS4-11, 24 h) and 823 nM in the experiment with Molt-4 cells. Also, the Ki on Bcl-2 protein was found to be 0.888 nM; at Bcl-xL protein, 6.13 nM.
With `CC1(C)CC(c2ccc(Cl)cc2)=C2CN3CCN(c4ccc(C(=O)NS(=O)(=O)c5ccc(NC[C@H]6CC[C@](O)(CF)CC6)c([N+](=O)[O-])c5)c(N5CCCOc6nc7[nH]ccc7cc65)c4)C[C@H]3COCCCO[C@@H]2C1` [Example 14, 4-((4aS,10aR)-14-(4-chlorophenyl)-12,12-dimethyl-1,2,4a,5,8,9,10a,11,13,15-decahydro-7H,12H-benzo[f]pyrazino[2,1-c][1,8]dioxa[4]azacycloundecin-3(4H)-yl)-2-(3,4-dihydro-2H-pyrrolo[3′,2′:5,6]pyrido[2,3-b][1,4]oxazepin-1(7H)-yl)-N-((4-((((1s,4s)-4-(fluoromethyl)-4-hydroxycyclohexyl)methyl)amino)-3-nitrophenyl)sulfonyl)benzamide], the EC50 with RS4;11 cells (24 hours) was 1.64 nM; in the experiment on Molt-4 cells, 1740 nM. Moreover, the Ki at Bcl-2 protein was 0.24 nM; on Bcl-xL protein, 20.8 nM.
Turning to `CC1(C)CC(c2ccc(Cl)cc2)=C2CN3CCN(c4ccc(C(=O)NS(=O)(=O)c5ccc(NC[C@H]6C[C@](O)(C7CCC7)C6)c([N+](=O)[O-])c5)c(N5CCCOc6nc7[nH]ccc7cc65)c4)C[C@H]3COCCCO[C@@H]2C1` [Example 15, 4-((4aS,10aR)-14-(4-chlorophenyl)-12,12-dimethyl-1,2,4a,5,8,9,10a,11,13,15-decahydro-7H,12H-benzo[f]pyrazino[2,1-c][1,8]dioxa[4]azacycloundecin-3(4H)-yl)-2-(3,4-dihydro-2H-pyrrolo[3′,2′:5,6]pyrido[2,3-b][1,4]oxazepin-1(7H)-yl)-N-((4-((((1s,3s)-1-hydroxy-[1,1′-bi(cyclobutan)]-3-yl)methyl)amino)-3-nitrophenyl)sulfonyl)benzamide], the EC50 stood at 5.64 nM in the experiment with RS4;11 cells (24 hours) and 2550 nM with Molt-4 cells. Besides, the results for the Ki at Bcl-2 protein and on Bcl-xL protein were 0.552 nM and 13.9 nM, respectively.
With `CC1(C)CC(c2ccc(Cl)cc2)=C2CN3CCN(c4ccc(C(=O)NS(=O)(=O)c5ccc(NCC6CCCCO6)c([N+](=O)[O-])c5)c(N5CCCOc6nc7[nH]ccc7cc65)c4)C[C@H]3COCCCO[C@@H]2C1` (stereo partly drawn) [Example 45, 4-((4aS,10aR)-14-(4-chlorophenyl)-12,12-dimethyl-1,2,4a,5,8,9,10a,11,13,15-decahydro-7H,12H-benzo[f]pyrazino[2,1-c][1,8]dioxa[4]azacycloundecin-3(4H)-yl)-2-(3,4-dihydro-2H-pyrrolo[3′,2′:5,6]pyrido[2,3-b][1,4]oxazepin-1(7H)-yl)-N-((3-nitro-4-(((tetrahydro-2H-pyran-2-yl)methyl)amino)phenyl)sulfonyl)benzamide], the results for the EC50 in the experiment with RS4;11 cells (24 hours) and in the experiment with Molt-4 cells were 10.7 nM and more than 10000 nM, respectively.
On the same counts, the results for `COC[C@]1(F)C[C@H](CNc2ccc(S(=O)(=O)NC(=O)c3ccc(N4CCN5CC6=C(c7ccc(Cl)cc7)CC(C)(C)C[C@H]6OCCCOC[C@@H]5C4)cc3N3CCCOc4nc5[nH]ccc5cc43)cc2[N+](=O)[O-])C1` [Example 47, 4-((4aS,10aR)-14-(4-chlorophenyl)-12,12-dimethyl-1,2,4a,5,8,9,10a,11,13,15-decahydro-7H,12H-benzo[f]pyrazino[2,1-c][1,8]dioxa[4]azacycloundecin-3(4H)-yl)-2-(3,4-dihydro-2H-pyrrolo[3′,2′:5,6]pyrido[2,3-b][1,4]oxazepin-1(7H)-yl)-N-((4-((((1r,3r)-3-fluoro-3-(methoxymethyl)cyclobutyl)methyl)amino)-3-nitrophenyl)sulfonyl)benzamide] are 10.9 nM and more than 10000 nM.
On the same counts, the results for `CO[C@]1(CF)C[C@@H](CNc2ccc(S(=O)(=O)NC(=O)c3ccc(N4CCN5CC6=C(c7ccc(Cl)cc7)CC(C)(C)C[C@H]6OCCCOC[C@@H]5C4)cc3N3CCCOc4nc5[nH]ccc5cc43)cc2[N+](=O)[O-])C1` [Example 48, 4-((4aS,10aR)-14-(4-chlorophenyl)-12,12-dimethyl-1,2,4a,5,8,9,10a,11,13,15-decahydro-7H,12H-benzo[f]pyrazino[2,1-c][1,8]dioxa[4]azacycloundecin-3(4H)-yl)-2-(3,4-dihydro-2H-pyrrolo[3′,2′:5,6]pyrido[2,3-b][1,4]oxazepin-1(7H)-yl)-N-((4-((((1r,3r)-3-(fluoromethyl)-3-methoxycyclobutyl)methyl)amino)-3-nitrophenyl)sulfonyl)benzamide] are 18.1 nM and 5840 nM.
On the same counts, the results for `CC1(C)CC(c2ccc(Cl)cc2)=C2CN3CCN(c4ccc(C(=O)NS(=O)(=O)c5ccc(OC[C@H]6CC[C@@](C)(O)CC6)c([N+](=O)[O-])c5)c(N5CCCOc6nc7[nH]ccc7cc65)c4)C[C@H]3COCCCO[C@@H]2C1` [Example 49, 4-((4aS,10aR)-14-(4-chlorophenyl)-12,12-dimethyl-1,2,4a,5,8,9,10a,11,13,15-decahydro-7H,12H-benzo[f]pyrazino[2,1-c][1,8]dioxa[4]azacycloundecin-3(4H)-yl)-2-(3,4-dihydro-2H-pyrrolo[3′,2′:5,6]pyrido[2,3-b][1,4]oxazepin-1(7H)-yl)-N-((4-(((1s,4s)-4-hydroxy-4-methylcyclohexyl)methoxy)-3-nitrophenyl)sulfonyl)benzamide] are 25 nM and 36 nM.
For the compound `CO[C@@H]1CC[C@@H](COc2ccc(S(=O)(=O)NC(=O)c3ccc(N4CCN5CC6=C(c7ccc(Cl)cc7)CC(C)(C)C[C@H]6OCCCOC[C@@H]5C4)cc3N3CCCOc4nc5[nH]ccc5cc43)cc2[N+](=O)[O-])OC1` [Example 51, 4-((4aS,10aR)-14-(4-chlorophenyl)-12,12-dimethyl-1,2,4a,5,8,9,10a,11,13,15-decahydro-7H,12H-benzo[f]pyrazino[2,1-c][1,8]dioxa[4]azacycloundecin-3(4H)-yl)-2-(3,4-dihydro-2H-pyrrolo[3′,2′:5,6]pyrido[2,3-b][1,4]oxazepin-1(7H)-yl)-N-((4-(((2S,5R)-5-methoxytetrahydro-2H-pyran-2-yl)methoxy)-3-nitrophenyl)sulfonyl)benzamide], the EC50 in the experiment on RS4;11 cells (24 hours) was 9.6 nM; in the experiment on Molt-4 cells, more than 10000 nM.
